Values after ≈ are worked out from the molar mass of the structure shown. Where two headings read alike, the source gives them in different places. *1 amine or outer side, *2 acyl side, *3 side chain or, on linkers, in order; H or OH if unused. Where a SMILES comes first, the peptide text is derived from it. Bridges are numbered along the chain shown (N, C = ends). [ ]: non-standard residue; d: D form. ξ: configuration not given here. Phe(3R-OH) = O=C([C@@H](N[*:1])[C@H](O[*:3])c1ccccc1)[*:2]; Phe(βR-NH) = O=C([C@@H](N[*:1])[C@H](N[*:3])c1ccccc1)[*:2]; Asn(3S-OH) = NC(=O)[C@@H](O)[C@H](N)C(=O)O; Leu(3R-OH) = CC(C)[C@@H](O)[C@H](N)C(=O)O; X1 = NC(=O)[C@@H](O)C(N[*:1])C(=O)[*:2]; dAla(TMS) = C[Si](C)(C)C[C@@H](N)C(=O)O; d(tBuAla) = CC(C)(C)C[C@@H](N)C(=O)O; tBuAla = CC(C)(C)C[C@H](N)C(=O)O; 3Pal = N[C@@H](Cc1cccnc1)C(=O)O; aThr = C[C@H](O)[C@H](N)C(=O)O; ξIle = CC[C@H](C)C(N)C(=O)O; Nle = CCCC[C@H](N)C(=O)O; ξS = NC(CO)C(=O)O; ξA = CC(N)C(=O)O
How the values were obtained:
[1] = test system: Enterococcus faecalis 27159; type: cell-based
Procedure: (§1) Determination of the Minimum Inhibitory Concentration (MIC):
(§2) The MIC is determined in the liquid dilution test in accordance with the NCCLS guidelines. Overnight cultures of Staphylococcus aureus 133, Enterococcus faecalis 27159, E. faecium 4147 and Streptococcus pneumoniae G9a are incubated with the described test substances in a 1:2 dilution series. The MIC determination is carried out with a cell count of 10^5 microbes per ml in Isosensitest medium (Difco, Irvine/USA), with the exception of S. pneumoniae which is tested in BHI broth (Difco, Irvine/USA) with 10% bovine serum with a cell count of 10^6 microbes per ml. The cultures are incubated at 37° C. for 18-24 hours, S. pneumoniae in the presence of 10% CO2.
(§3) The MIC is defined as the lowest concentration of each substance at which no visible bacterial growth occurs any longer. The MIC values are reported in μg/ml.

[2] = test system: Staphylococcus aureus 133; type: cell-based
Procedure: as §1, §2, §3

[3] = test system: Streptococcus pneumoniae G9a; type: cell-based
Procedure: as §1, §2, §3

[4] = Chemical stability in alkaline aqueous solution (buffer pH 7.8, HPLC); type: physicochemical; details: aqueous neutral to basic medium (pH>7)
Procedure: Determination of the Chemical Stability in Stability Alkaline Aqueous Solution:
0.3 mg of the test substance are dissolved in a mixture of 0.25 ml of acetonitrile, 0.25 ml of DMSO and 0.5 ml of buffer of pH 7.8 (consisting of 111 mg (1 mmol) of calcium chloride, 7.91 g (100 mmol) of ammonium bicarbonate, 100 ml of acetonitrile ad 1000 ml) and left to stand at room temperature. A 5 μl aliquot is taken from the solution once an hour and analyzed by HPLC (method 57). The concentration of the test compound at time 0 h, indicated by the UV absorption (1E), is set equal to 100%, and the decrease over time is observed. At the same time, the increase in the ring-opened degradation product is observed.

[5] = amide bond; 28-membered ring; HATU/NMM; DMF; 0.0 °C
[6] = Isosensitest medium, 10^5 microbes per ml, 37° C., 18-24 hours

| Molecule | MIC E. faecalis ICB 27159 [1]; 27159 | MIC S. aureus 133 [2]; 133 | MIC S. pneumoniae G9a ([3]; G9a) | MIC E. faecalis ICB 27159 [1, 6] | MIC S. aureus 133 [2, 6] | MIC S. pneumoniae G9a ([3]; BHI broth with 10% bovine serum, 10^6 microbes per ml, 37° C., 18-24 hours, 10% CO2) | hydrolysis (opening of the lactone) in aqueous medium [4] | ring closure, crude yield [5] |
| --- | --- | --- | --- | --- | --- | --- | --- | --- |
| CC[C@H](C)[C@@H]1NC(=O)[C@@H](CCCNC(=N)N)NC(=O)[C@H](CC(C)C)NC(=O)[C@H]([C@H](O)C(C)C)NC(=O)[C@@H](NC(=O)[C@H](CC(C)(C)C)NC(=O)[C@H](N)CC(C)(C)C)[C@@H](c2ccccc2)NC(=O)[C@H](CO)NC(=O)C(C)NC(=O)CNC(=O)[C@H]([C@H](C)O)NC1=O (stereo partly drawn) [Example 13, [3-tert-Butyl-D-alanyl]-[3-tert-butyl-L-alanyl]-[(3R)-3-amino-L-phenylalanyl]-[(3R)-3-hydroxy-L-leucyl]-L-leucyl-D-arginyl-L-isoleucyl-L-allothreonyl-glycyl-L-alanyl-L-serine C^1.11-N^3.3-lactam bistrifluoroacetate] (H-[d(tBuAla)][tBuAla][Phe(βR-NH)][Leu(3R-OH)]L[dR]I[aThr]G[ξA]S; lactam 3-C) | 0.5 µg/mL (≈ 0.402 µM) | 0.25 µg/mL (≈ 0.201 µM) | 0.5 µg/mL (≈ 0.402 µM) | – | – | – | – | – |
| CC[C@H](C)[C@@H]1NC(=O)[C@@H](CCCNC(=N)N)NC(=O)[C@H](CC(C)C)NC(=O)[C@H]([C@H](O)C(C)C)NC(=O)[C@@H](NC(=O)[C@H](CC(C)(C)C)NC(=O)[C@H](N)CC(C)(C)C)[C@@H](c2ccccc2)NC(=O)[C@H](CO)NC(=O)C([C@H](O)C(N)=O)NC(=O)CNC(=O)[C@H](CO)NC1=O (stereo partly drawn) [Example 14, [3-tert-Butyl-D-alanyl]-[3-tert-butyl-L-alanyl]-[(3R)-3-amino-L-phenylalanyl]-[(3R)-3-hydroxy-L-leucyl]-L-leucyl-D-arginyl-L-isoleucyl-L-seryl-glycyl-[(3S)-3-hydroxy-L-asparaginyl]-L-serine C^1.11-N^3.3-lactam bistrifluoroacetate] (H-[d(tBuAla)][tBuAla][Phe(βR-NH)][Leu(3R-OH)]L[dR]ISG[X1]S; lactam 3-C) | 0.5 µg/mL (≈ 0.388 µM) | 0.25 µg/mL (≈ 0.194 µM) | 0.125 µg/mL (≈ 0.0969 µM) | – | – | – | – | – |
| CC[C@H](C)[C@@H]1NC(=O)[C@@H](CCCNC(=N)N)NC(=O)[C@H](CC(C)C)NC(=O)[C@H]([C@H](O)C(C)C)NC(=O)[C@@H](NC(=O)[C@H](CC(C)(C)C)NC(=O)[C@H](N)CC(C)(C)C)[C@@H](c2ccccc2)NC(=O)C(CO)NC(=O)[C@H](CO)NC(=O)CNC(=O)[C@H](CO)NC1=O (stereo partly drawn) [Example 23, [3-tert-Butyl-D-alanyl]-[3-tert-butyl-L-alanyl]-[(3R)-3-amino-L-phenylalanyl]-[(3R)-3-hydroxy-L-leucyl]-L-leucyl-D-arginyl-L-isoleucyl-L-seryl-glycyl-L-seryl-L-serine C^1.11-N^3.3-lactam bistrifluoroacetate] (H-[d(tBuAla)][tBuAla][Phe(βR-NH)][Leu(3R-OH)]L[dR]ISGS[ξS]; lactam 3-C) | 1 µg/mL (≈ 0.802 µM) | 0.5 µg/mL (≈ 0.401 µM) | 0.25 µg/mL (≈ 0.201 µM) | – | – | – | – | – |
| CC[C@H](C)C1NC(=O)[C@H]([C@H](O)C(C)C)NC(=O)[C@@H](NC(=O)[C@H](CC(C)(C)C)NC(=O)[C@H](N)CC(C)(C)C)[C@@H](c2ccccc2)NC(=O)C(CO)NC(=O)[C@H](CO)NC(=O)CNC(=O)[C@H]([C@H](C)O)NC(=O)[C@H]([C@@H](C)CC)NC(=O)[C@@H](CCCNC(=N)N)NC1=O (stereo partly drawn) [Example 35, [3-tert-Butyl-D-alanyl]-[3-tert-butyl-L-alanyl]-[(3R)-3-amino-L-phenylalanyl]-[(3R)-3-hydroxy-L-leucyl]-L-isoleucyl-D-arginyl-L-isoleucyl-L-allothreonyl-glycyl-L-seryl-L-serine C^1.11-N^3.3-lactam bistrifluoroacetate] (H-[d(tBuAla)][tBuAla][Phe(βR-NH)][Leu(3R-OH)][ξIle][dR]I[aThr]GS[ξS]; lactam 3-C) | 1 µg/mL (≈ 0.793 µM) | 0.25 µg/mL (≈ 0.198 µM) | 0.5 µg/mL (≈ 0.397 µM) | – | – | – | – | – |
| CCCC[C@@H]1NC(=O)[C@H]([C@H](O)C(C)C)NC(=O)[C@@H](NC(=O)[C@H](Cc2cccnc2)NC(=O)[C@H](N)C[Si](C)(C)C)[C@@H](c2ccccc2)NC(=O)C(CO)NC(=O)[C@H](C)NC(=O)CNC(=O)[C@H]([C@H](C)O)NC(=O)[C@H]([C@@H](C)CC)NC(=O)[C@@H](CCCNC(=N)N)NC1=O (stereo partly drawn) [Example 41, [3-Trimethylsilyl-D-alanyl]-[3-(3-pyridyl)-L-alanyl]-[(3R)-3-amino-L-phenylalanyl]-[(3R)-3-hydroxy-L-leucyl]-L-norleucyl-D-arginyl-L-isoleucyl-L-allothreonyl-glycyl-L-alanyl-L-serine C^1.11-N^3.3-lactam tristrifluoroacetate] (H-[dAla(TMS)][3Pal][Phe(βR-NH)][Leu(3R-OH)][Nle][dR]I[aThr]GA[ξS]; lactam 3-C) | – | – | – | 2 µg/mL (≈ 1.56 µM) | 0.25 µg/mL (≈ 0.195 µM) | 0.25 µg/mL (≈ 0.195 µM) | – | – |
| CC[C@H](C)[C@@H]1NC(=O)[C@@H](CCCNC(=N)N)NC(=O)[C@H](CC(C)C)NC(=O)[C@H]([C@H](O)C(C)C)NC(=O)[C@@H](NC(=O)[C@H](CC(C)(C)C)NC(=O)[C@H](N)CC(C)(C)C)[C@@H](c2cccnc2)NC(=O)C(CO)NC(=O)C([C@H](O)C(N)=O)NC(=O)CNC(=O)[C@H]([C@H](C)O)NC1=O (stereo partly drawn) [Example 44, [3-tert-Butyl-D-alanyl]-[3-tert-butyl-L-alanyl]-[(3R)-3-amino-3-(pyridin-3-yl)-L-alanyl]-[(3R)-3-hydroxy-L-leucyl]-L-leucyl-D-arginyl-L-isoleucyl-L-allothreonyl-glycyl-[(3S)-3-hydroxy-L-asparaginyl]-L-serine C^1.11-N^3.3-lactam tristrifluoroacetate] | 0.5 µg/mL (≈ 0.383 µM) | 0.25 µg/mL (≈ 0.192 µM) | 0.125 µg/mL (≈ 0.0958 µM) | – | – | – | – | – |
| CC[C@H](C)[C@@H]1NC(=O)[C@@H](CCCNC(=N)N)NC(=O)[C@H](CC(C)C)NC(=O)[C@H]([C@H](O)C(C)C)NC(=O)[C@@H](NC(=O)[C@H](CC(C)C)NC(=O)[C@H](N)CC(C)C)[C@@H](c2ccccc2)OC(=O)[C@H](CO)NC(=O)[C@H]([C@H](O)C(N)=O)NC(=O)CNC(=O)[C@H]([C@H](C)O)NC1=O [Lysobactin, lysobactin] (H-[dL]L[Phe(3R-OH)][Leu(3R-OH)]L[dR]I[aThr]G[Asn(3S-OH)]S; ester 3-C (inferred); N-terminus assumed) | 0.5 µg/mL (≈ 0.392 µM) | 0.5 µg/mL (≈ 0.392 µM) | 0.063 µg/mL (≈ 0.0494 µM) | – | – | – | hydrolyzed in an aqueous neutral to basic medium (pH>7) within days | – |
| [(3R)-N^2-(Benzyloxycarbonyl)-3-amino-L-phenylalanyl]-[(3R)-3-hydroxy-L-leucyl]-L-leucyl-D-arginyl-L-isoleucyl-L-allothreonyl-glycyl-L-allothreonyl-L-aserinate C^1.9-N^3.1-lactam trifluoroacetate | – | – | – | – | – | – | – | 86% |

From patent US8076285B2, “Lysobactin amides” (Aicuris GmbH & Co. KG, priority 2006, dated 2011)
